Measured values taken from US20230174523A1, “BENZENESULFONAMIDE DERIVATIVES AS TRAP1 MODULATORS AND USES THEREOF” (Amathus Therapeutics, Inc., priority 2020, published 2023).

Target: T1, TRAP1 enzyme (Homo sapiens, UniProt Q12931)
T1 sequence (Q12931 60-704): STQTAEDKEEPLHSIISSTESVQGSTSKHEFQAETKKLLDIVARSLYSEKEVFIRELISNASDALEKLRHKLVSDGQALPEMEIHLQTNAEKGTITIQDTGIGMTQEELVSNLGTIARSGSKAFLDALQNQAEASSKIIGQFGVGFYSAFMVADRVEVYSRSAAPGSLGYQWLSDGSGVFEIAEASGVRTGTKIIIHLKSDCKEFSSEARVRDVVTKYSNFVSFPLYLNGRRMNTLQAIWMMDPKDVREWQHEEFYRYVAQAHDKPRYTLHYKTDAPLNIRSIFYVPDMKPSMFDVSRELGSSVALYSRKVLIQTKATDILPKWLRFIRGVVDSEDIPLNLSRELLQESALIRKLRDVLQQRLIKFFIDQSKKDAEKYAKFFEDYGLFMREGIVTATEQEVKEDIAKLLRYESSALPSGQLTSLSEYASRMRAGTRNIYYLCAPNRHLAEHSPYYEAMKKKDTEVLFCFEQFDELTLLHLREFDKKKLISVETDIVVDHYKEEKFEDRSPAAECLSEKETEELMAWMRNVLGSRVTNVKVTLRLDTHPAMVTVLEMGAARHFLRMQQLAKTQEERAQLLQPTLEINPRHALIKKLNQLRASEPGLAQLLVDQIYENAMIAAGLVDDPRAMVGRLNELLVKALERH
Test: ADP Glo assay of TRAP1 ATPase activity
Format: biochemical
Conditions: for EC50: TRAP1 ATPase activation, 150 nM Trap1, 20 μM ATP, geometric mean, read-out: ADP GLO DRC: GeoMean EC50; for Emax: read-out: ADP GLO DRC: Mean Emax
Summary of the method: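 150 nM TRAP1 preincubated with compound (0.79–100 μM) 30 min at 37° C in Pipes pH 7.5 buffer (0.05 mM MgCl2, 40 mM KCl), then 20 μM ATP added for 60 min at 37° C. ADP quantified by ADP-Glo luminescence against ATP/ADP standard curve. Emax and EC50 from sigmoidal fit.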

| EC50 | Emax | SMILES |
| --- | --- | --- |
| 10 to 20 µM | 123 to 159% | COc1ccc(NC(=O)c2ncccc2C)cc1S(=O)(=O)Nc1c(C)cccc1C [Compound 1167] |
| < 10 µM | 160 to 199% | COc1ccc(NC(=O)c2nc(C(C)C)cs2)cc1S(=O)(=O)Nc1c(C)cccc1C [Compound 1169] |
| < 10 µM | 123 to 159% | COc1ccc(NC(=O)c2cc3ccccc3n2C)cc1S(=O)(=O)Nc1c(C)cccc1C [Compound 1170] |
| 20 to 100 µM | 160 to 199% | COc1ccc(NC(=O)c2nccs2)cc1S(=O)(=O)Nc1c(C)cccc1C [Compound 1171] |
| < 10 µM | 160 to 199% | CCCN1CCN(c2ccc(C(=O)Nc3ccc(OC)c(S(=O)(=O)Nc4c(C)cccc4C)c3)cc2)CC1 [Compound 1174] |
| 20 to 100 µM | 160 to 199% | COc1ccc(NC(=O)c2cnc(C3CC3)o2)cc1S(=O)(=O)Nc1c(C)cccc1C [Compound 1175] |
| < 10 µM | 160 to 199% | COc1ccccc1-c1nc(C(=O)Nc2ccc(OC)c(S(=O)(=O)Nc3ccc(Br)cc3)c2)c[nH]1 [Compound 1181] |
| 20 to 100 µM | > 300% | C=C(C)c1cc(OC)c(S(=O)(=O)Nc2ccc(C(F)(F)F)cc2)cc1NC(=O)c1ncc(-c2ccccc2)o1 [Compound 1189] |
| 10 to 20 µM | 160 to 199% | COc1ccc(NC(=O)c2cccc(-c3cnco3)c2)cc1S(=O)(=O)Nc1c(C)cccc1C [Compound 1218] |
| 20 to 100 µM | 160 to 199% | COc1ccc(NC(=O)c2cccc3ncccc23)cc1S(=O)(=O)Nc1c(C)cccc1C [Compound 1219] |
| 20 to 100 µM | 123 to 159% | O=C(Nc1ccc(F)c(S(=O)(=O)Nc2ccc(Cl)cc2)c1)c1cccc(-n2cncn2)c1 [Compound 1220] |
| 10 to 20 µM | 200 to 300% | COc1ccc(NC(=O)c2cccc(-c3cnccn3)c2)cc1S(=O)(=O)Nc1c(C)cccc1C [Compound 1222] |
| 20 to 100 µM | 160 to 199% | COc1ccc(NC(=O)c2cccc3cnccc23)cc1S(=O)(=O)Nc1c(C)cccc1C [Compound 1224] |
| < 10 µM | 200 to 300% | COc1ccc(NC(=O)c2cccc(-c3cccnc3)c2)cc1S(=O)(=O)Nc1c(C)cccc1C [Compound 1225] |
| 20 to 100 µM | 123 to 159% | COc1ccc(NC(=O)c2cc(C)nc3onc(C)c23)cc1S(=O)(=O)Nc1c(C)cccc1C [Compound 1226] |
| 10 to 20 µM | 200 to 300% | COc1ccc(NC(=O)c2cccc3ncsc23)cc1S(=O)(=O)Nc1c(C)cccc1C [Compound 1227] |
| 20 to 100 µM | 123 to 159% | COc1ccc(NC(=O)c2ccc3c(c2)ncn3C)cc1S(=O)(=O)Nc1c(C)cccc1C [Compound 1228] |
| < 10 µM | 160 to 199% | COc1ccc(NC(=O)c2cc(-c3ccccc3)no2)cc1S(=O)(=O)Nc1c(C)cccc1C [Compound 1229] |
| 10 to 20 µM | > 300% | COc1ccc(NC(=O)c2ccc3nc(C)sc3c2)cc1S(=O)(=O)Nc1c(C)cccc1C [Compound 1231] |
| 10 to 20 µM | 200 to 300% | COc1ccc(NC(=O)c2cccc(-n3ccnc3)c2)cc1S(=O)(=O)Nc1c(C)cccc1C [Compound 1232] |
| 10 to 20 µM | 160 to 199% | COc1ccc(NC(=O)c2ccc3ncsc3c2)cc1S(=O)(=O)Nc1c(C)cccc1C [Compound 1233] |
| < 10 µM | 160 to 199% | COc1ccc(NC(=O)c2ccccc2Oc2ccccc2)cc1S(=O)(=O)Nc1c(C)cccc1C [Compound 1234] |
| 10 to 20 µM | 200 to 300% | COc1ccc(NC(=O)c2n[nH]c3c2CCCC3)cc1S(=O)(=O)Nc1c(C)cccc1C [Compound 1235] |

| EC50 | Emax | SMILES |
| --- | --- | --- |
| 20 to 100 µM | 123 to 159% | COc1ccc(NC(=O)c2ccc3ncoc3c2)cc1S(=O)(=O)Nc1c(C)cccc1C [Compound 1236] |
| < 10 µM | 160 to 199% | COc1ccc(NC(=O)c2ccc(Cn3cc(Cl)cn3)cc2)cc1S(=O)(=O)Nc1c(C)cccc1C [Compound 1237] |
| 20 to 100 µM | 123 to 159% | COc1ccc(NC(=O)c2ccc3ncn(C)c3c2)cc1S(=O)(=O)Nc1c(C)cccc1C [Compound 1238] |
| 10 to 20 µM | 200 to 300% | COc1ccc(NC(=O)c2ccc3nsnc3c2)cc1S(=O)(=O)Nc1c(C)cccc1C [Compound 1240] |
| 10 to 20 µM | 200 to 300% | COc1ccc(NC(=O)c2ccc3ncccc3c2)cc1S(=O)(=O)Nc1c(C)cccc1C [Compound 1241] |
| < 10 µM | > 300% | COc1ccc(NC(=O)c2cccc(-c3ccnn3C)c2)cc1S(=O)(=O)Nc1c(C)cccc1C [Compound 1242] |
| < 10 µM | 200 to 300% | COc1ccc(NC(=O)c2cccc(-c3noc(C)n3)c2)cc1S(=O)(=O)Nc1c(C)cccc1C [Compound 1243] |
| 10 to 20 µM | 123 to 159% | COc1ccc(NC(=O)c2c(C)noc2-c2ccccc2)cc1S(=O)(=O)Nc1c(C)cccc1C [Compound 1244] |
| 20 to 100 µM | 160 to 199% | COc1ccc(NC(=O)c2cccc(-c3cncnc3)c2)cc1S(=O)(=O)Nc1c(C)cccc1C [Compound 1248] |
| 10 to 20 µM | 160 to 199% | COc1ccc(NC(=O)c2cccc(-n3nc(C)cc3C)c2)cc1S(=O)(=O)Nc1c(C)cccc1C [Compound 1249] |
| 10 to 20 µM | 160 to 199% | COc1ccc(NC(=O)c2cccc3nccnc23)cc1S(=O)(=O)Nc1c(C)cccc1C [Compound 1251] |
| < 10 µM | 200 to 300% | COc1ccc(NC(=O)c2cc3c(C)nn(C)c3s2)cc1S(=O)(=O)Nc1c(C)cccc1C [Compound 1252] |
| 20 to 100 µM | 160 to 199% | CCS(=O)(=O)c1ccc(OC)c(C(=O)Nc2ccc(OC)c(S(=O)(=O)Nc3c(C)cccc3C)c2)c1 [Compound 1254] |
| 20 to 100 µM | 123 to 159% | Cn1cnc2cc(C(=O)Nc3ccc(F)c(S(=O)(=O)Nc4ccc(Cl)cc4)c3)ccc2c1=O [Compound 1256] |
| < 10 µM | 200 to 300% | COc1ccc(NC(=O)c2cc(-c3ccccc3)[nH]n2)cc1S(=O)(=O)Nc1c(C)cccc1C [Compound 1258] |
| 20 to 100 µM | 123 to 159% | COc1ccc(NC(=O)c2cccc(-n3cnnn3)c2)cc1S(=O)(=O)Nc1c(C)cccc1C [Compound 1259] |
| 20 to 100 µM | 123 to 159% | Cn1c(=O)n(C)c2cc(C(=O)Nc3ccc(F)c(S(=O)(=O)Nc4ccc(Cl)cc4)c3)ccc21 [Compound 1261] |
| < 10 µM | 200 to 300% | COc1ccc(NC(=O)c2cn(Cc3ccccc3)nn2)cc1S(=O)(=O)Nc1c(C)cccc1C [Compound 1265] |
| 20 to 100 µM | 123 to 159% | COc1ccc(NC(=O)c2ccncc2-c2ccccc2)cc1S(=O)(=O)Nc1c(C)cccc1C [Compound 1267] |
| 20 to 100 µM | 123 to 159% | Cc1nc2cccc(C(=O)Nc3ccc(F)c(S(=O)(=O)Nc4ccc(Cl)cc4)c3)c2s1 [Compound 1268] |
| 10 to 20 µM | 160 to 199% | COc1ccc(NC(=O)c2ccc3sc(C)nc3c2)cc1S(=O)(=O)Nc1c(C)cccc1C [Compound 1269] |
| 10 to 20 µM | 200 to 300% | COc1ccc(NC(=O)c2ncn(-c3ccccc3)n2)cc1S(=O)(=O)Nc1c(C)cccc1C [Compound 1270] |
| < 10 µM | 160 to 199% | COc1ccc(NC(=O)c2cccc(-c3ccccn3)c2)cc1S(=O)(=O)Nc1c(C)cccc1C [Compound 1271] |
